Experimental data published in US20050053631A1, “Method of decreasing sebum production” (Unilever Home & Personal Care USA, Division of Conopco, Inc., priority 2003, published 2005).

Test system: sebocytes
Test: In Vitro Sebocyte Lipogenesis Assay (14-C acetate incorporation into lipids of cultured sebocytes)
Format: cell-based
Conditions: cultured human sebocytes; for % decrease in lipid syn.: 24 h, relative to vehicle control
Protocol: In Vitro Sebocyte Lipogenesis Assay
Human sebaceous glands were isolated from the nose of a person and cultured using submerged tissue culture techniques (Bajor et al, J. Invest. Dermatol., 102:1994, p. 564). These sebocytes accumulate intracellular lipid droplets characteristic of mature human sebum.
Harvested and passaged sebocytes were added to each well of a 96 well tissue culture plate and incubated at 37° C. in-the presence of 7.5% CO2 for 10 days. The growth medium was changed three times per week. On the day of experimentation, the growth medium was removed and the sebocytes washed three times with phosphate buffered saline (PBS). Fresh phenol-free sebocyte growth media in 0.2 ml amount containing various concentrations of active agent speculated to inhibit lipogenesis was added to each well. Triplicate wells were utilized for each sample. […] The cultures were incubated at 37° C./7.5% CO2 for 24 hours. Radioactive label was prepared by adding 100 μl (micro-liters) of 14-C labelled acetic acid (Amersham, sodium salt, specific activity of 56 mCi/mmol) to 10 ml of 50 mM sodium acetate buffer. Then 50 μl was added to each well containing the sebocytes and active agents. The cultures were returned to the incubator for 4 hours. Thereafter the treatments and label were removed and the sebocytes rinsed three times with fresh PBS. Samples containing the 14-C label were extracted and the label counted using a Beckman scintillation counter. Triplicates were performed for each sample.
For each 96 well tissue culture plate, 20 samples could be analyzed. Of these, 1 sample was reserved for media, 1 sample for DMSO or ethanol, and 1 sample for phenol red leaving 17 remaining samples.

Molecule | activity in reducing lipid synthesis in sebocytes (in words) | % decrease in lipid syn. (10 uM) [%] | % decrease in lipid syn. (40 uM) [%] | % decrease in lipid syn. (20 uM) [%] | % decrease in lipid syn. (100 uM) [%] | also measured
C=C/C(C)=C/[C@@]1(C)SC(=O)C(C)=C1O [Thiolactomycin] | not to inhibit | – | – | – | – | –
[2R,3S]-2,3-epoxy4-oxo-7,10-trans, trans-dodecanoic acid amide [Cerulenin] | significant activity | 96.5 | 99.0 | – | – | % decrease in lipid syn. (1.6 uM): 13.6%; % decrease in lipid syn. (5 uM): 52.0%; % decrease in lipid syn. (concentration not printed (between 40 uM and 10 uM in the list)): 96.5%
C=C1CCC(=O)O1 [γ-methylene γ-butyrolactone] | ineffective | – | – | – | – | –
Oc1cc(Cl)ccc1Oc1ccc(Cl)cc1Cl [Triclosan] | significant activity | – | 90 | 48.8 | 97.2 | –
O=C(OC1Cc2c(O)cc(O)cc2OC1c1cc(O)c(O)c(O)c1)c1cc(O)c(O)c(O)c1 (single isomer, unassigned; (-)) [EGCG, (−)-epigallocatechin gallate] | significant activity | – | 13.4 | – | – | % decrease in lipid syn. (8 uM): 8.9%; % decrease in lipid syn. (200 uM): 29.5%; % decrease in lipid syn. (1000 uM): 90%
C=C1CCOC1=O [α-methylene-γ-butyrolactone] | significant activity | 1.3 | – | 13.2 | 53.3 | % decrease in lipid syn. (500 uM): 100%
